Bridge positions count the residues as written; N and C are the ends. Peptide text beside a SMILES is read from it. * marks the point of attachment. X1 = COc1cccc2c1C(=O)c1c(O)c3c(c(O)c1C2=O)C[C@@](C)(/C(CO)=N/OCC(=O)*)C[C@@H]3OC1CC(N)C(O)C(C)O1
System: C8161M/T1 melanoma cells tumours
Experiment: Therapeutic effect of targeting agent comprising cytotoxic effector unit on melanoma tumors
Type: in vivo, Athymic-nu mice
Conditions: 1,43 mg/kg i.v. twice a week, five doses; s.c. C8161M/T1 melanoma; FIG. 1
Procedure: 1 million C8161M/T1 melanoma cells were injected subcutaneously into flank of eight Athymic-nu mice and tumours were allowed to grow for one week. The mice were then divided into three groups those received the following treatments: • Group DMEM: two mice, DMEM only • Group Dox: two mice, 1,43 mg/kg doxorubicin dissolved in DMEM • Group pept+dox: four mice, 1,43 mg/kg Dxrb-Aoa-DLRSK (doxorubicin linked to targeting mofif LRS) dissolved in DMEM (dose equimolar to Group Dox)
Treatments were administered i.v. twice a week (Tuesdays and Fridays), total of five doses were injected. Tumours were measured with a calliper in two perpendicular directions on each injection day and on the day the animals were sacrificed. Tumour volume was calculated by the formula for ellipsoid: Volume=(length×width^2)×0.5

SMILES: COc1cccc2c1C(=O)c1c(O)c3c(c(O)c1C2=O)C[C@@](C)(/C(CO)=N/OCC(=O)N[C@H]1CC(=O)NCCCC[C@@H](C(=O)O)NC(=O)[C@H](CO)NC(=O)[C@H](CCCNC(=N)N)NC(=O)[C@H](CC(C)C)NC1=O)C[C@@H]3OC1CC(N)C(O)C(C)O1 (some centres unmarked) [Dxrb-Aoa-DLRSK] (X1-DLRSK-OH; lactam 1-5)
- selective targeting to melanoma tumor in vivo: selectively targets to melanoma tumor in vivo
- therapeutic effect (tumour volume) compared with doxorubicin: significantly increases the therapeutic effect of doxorubicin

From US20060263294A1, “Tumor targeting agents and uses thereof” (KARYON OY, priority 2002, published 2006)
